Results published in paper PMC7796304, “Nephrotoxic Potential of Putative 3,5-Dichloroaniline (3,5-DCA) Metabolites and Biotransformation of 3,5-DCA in Isolated Kidney Cells from Fischer 344 Rats” (International Journal of Molecular Sciences, 2020).

Columns and labels:
[1] = system: isolated kidney cells (IKC); experiment: 3,5-DCA metabolism by IKC, HPLC of media and cells; conditions: for free aminochlorophenol after arylsulfatase or β-glucuronidase treatment of media or cell lysates: 45 or 90 min
Description: At the end of the incubation period, 1.0 mL samples were collected, and media and cells separated by centrifugation. The pelleted cells were washed with KH buffer (no bovine serum albumin), and the rinse was added to the media. Cells were lysed via sonication and protein was precipitated by methanol (1.0 mL) addition to all samples. Samples were centrifuged (3000 g; 10 min, 4 °C) and the supernatant filtered through a 0.45 µ syringe filter and stored at −20 °C until analyzed by HPLC as described below.
To determine if sulfate or glucuronide conjugates were formed, in some experiments, media and cell supernatant fractions obtained as described above were treated with β-glucuronidase (6500 units/mL, final concentration) or arylsulfatase (200 units/mL, final concentration) + saccaharolactone (20 mM, final concentration) for 18 h (37 °C) in 0.1 M acetate buffer (pH 5.0) to hydrolyze any glucuronide or sulfate conjugates, respectively, that were formed [26]. Hydrolysis was stopped by the addition of cold methanol (2.4 mL). The fractions were then filtered and stored until analyzed as described above.
Chromatograms were collected and integrated using Empower 3 software (Waters Co., Milford, MA, USA). A Waters X Select HSS T3 C18 column (3.5 µm; 4.6 × 150 mm^2) fitted with a Waters XSelect HSS T3 VanGuard Cartridge (3.5 µm; 3.9 × 5 mm^2) was used for separation of compounds. The mobile phase consisted of 50:50 methanol:water with a flow rate of 0.75 mL/min. Standard curves, limits of detection, and extraction coefficients were determined for 3,5-DCA and putative metabolites. Extraction coefficients were determined by comparing the integration of a 1.0 mM 3,5-DCA or a metabolite sample that had undergone sample processing (i.e., the addition of methanol and centrifugation) to that of a unprocessed 1.0 mM 3,5-DCA or metabolite sample.

[2] = system: isolated kidney cells (IKC); experiment: Effect of DEDTCA pretreatment on 3,5-DCA metabolism in IKC; conditions: 90 min; for detection as 3,5-DCA metabolite in media and cells: DEDTCA experiment; for detection as 3,5-DCA metabolite in media and cells / Percent of Dose, Cells / Percent of Dose, Media: 3,5-DCA 1.0 mM; for Percent of Dose, Cells / Percent of Dose, Media: N = 4, mean ± SE
Description: In a separate experiment, cells were pretreated with diethyldithiocarbamic acid (DEDTCA, 0.1 mM, 30 min pretreatment), a CYP2C inhibitor, before 3,5-DCA addition to determine which metabolites were decreased with DEDTCA pretreatment. Following the 90 min incubation period, cells and media were treated and stored as described above for the determination of 3,5-DCA concentrations and the concentrations of 3,5-DCA metabolites formed.
Samples (75 µL) of media and lysed IKC were analyzed on a Waters Alliance e2695 HPLC system (Waters Co., Milford, MA, USA), utilizing a Waters 2489 variable UV/Vis detector at 254 nM. Chromatograms were collected and integrated using Empower 3 software (Waters Co., Milford, MA, USA). A Waters X Select HSS T3 C18 column (3.5 µm; 4.6 × 150 mm^2) fitted with a Waters XSelect HSS T3 VanGuard Cartridge (3.5 µm; 3.9 × 5 mm^2) was used for separation of compounds. The mobile phase consisted of 50:50 methanol:water with a flow rate of 0.75 mL/min. Standard curves, limits of detection, and extraction coefficients were determined for 3,5-DCA and putative metabolites. Extraction coefficients were determined by comparing the integration of a 1.0 mM 3,5-DCA or a metabolite sample that had undergone sample processing (i.e., the addition of methanol and centrifugation) to that of a unprocessed 1.0 mM 3,5-DCA or metabolite sample.

[3] = system: isolated kidney cells (IKC); experiment: LDH release cytotoxicity, time and concentration course, in isolated kidney cells; conditions: for LDH release (marker of cytotoxicity) / nephrotoxic potential among the metabolites tested: 0-1.5 mM; for LDH release (marker of cytotoxicity): 60 or 90 min; for nephrotoxic potential among the metabolites tested: up to 90 min
[4] = system: isolated kidney cells (IKC); set-up: method as in PMID 26808022; conditions: 90 min exposure; cited from earlier work
kidney = conditions: cited from earlier work
[5] = set-up: method as in PMID 26808022; conditions: calculated, Fischer 344 rat; cited from earlier work
[6] = system: isolated kidney cells (IKC); set-up: method as in PMID 26808022; conditions: cited from earlier work
renal cortical slices = conditions: cited from earlier work
[7] = system: rat renal cortical slices; set-up: method as in PMID 8023337; conditions: cited from earlier work
[8] = system: rat renal cortical slices; set-up: method as in PMID 18243470; conditions: 2 h exposure; cited from earlier work
[9] = system: isolated kidney cells (IKC); set-up: method as in PMID 26808022; conditions: cited from earlier work; remark: listed apart in the source
[10] = system: isolated kidney cells (IKC); experiment: Pretreatment with antioxidants or enzyme inhibitors before 3,5-DCNB, LDH release in IKC; conditions: 1.0 mM 3,5-DCNB, 60 min, pretreatment concentrations per Table 4
[11] = system: isolated kidney cells (IKC); conditions: 0.5 mM 3,5-DCPHA, 60 min, pretreatment concentrations per Table 4
[12] = IKC incubated with 1.0 mM 3,5-DCA
[13] = IKC incubated with 0.5 mM 3,5-DCA, 90 min, N = 3, mean ± SE
[14] = IKC incubated with 1.0 mM 3,5-DCA, 90 min, N = 4, mean ± SE
[15] = +DEDTCA (0.1 mM, 30 min pretreatment)

For `Nc1cc(Cl)cc(Cl)c1O` [2-A-4,6-DCP, 2-amino-4,6-dichlorophenol], the “free aminochlorophenol after arylsulfatase or β-glucuronidase treatment of media or cell lysates” value [1, 12] was “did not reveal any free 2-A-4,6-DCP or 4-A-2,6-DCP”, the “detection as 3,5-DCA metabolite in media and cells” value (“detection as 3,5-DCA metabolite” for short) [2] was “no 2-A-4,6-DCP, 4-A-2,6-DCP or 3,5-DCPHA detected” and the “LDH release (marker of cytotoxicity)” value [3] was “did not result in significant increases in LDH release”. For the same compound, the “nephrotoxic potential among the metabolites tested” value [3] was “not cytotoxic”.

For `Nc1cc(Cl)cc(Cl)c1` [3,5-DCA, 3,5-dichloroaniline], the “concentration leading to increased LDH release” value [4] is given as ≥ 1000 µM, the “renal effects of in vivo exposure” value (kidney; Sprague–Dawley or Fischer 344 rats) is given as “elevated blood urea nitrogen (BUN) concentration, decreased organic ion transport in proximal tubular cells, decreased kidney weight, proteinuria, and hematuria” and the “maximum blood level from a nephrotoxic dose” value [5] is given as ~ 1.25 mM. The “reduced and total glutathione levels” value [6] was “both reduced”, the “Percentage of Dose, Cells” value [1, 13] was 6.82 ± 3.33% and the “Percentage of Dose, Media” value [1, 13] was 89.31 ± 6.32%. The “Percentage of Dose, Cells” value [1, 14] was 13.19 ± 2.12%, the “Percentage of Dose, Media” value [1, 14] was 87.13 ± 4.56% and the “fraction of 3,5-DCA metabolized to 3,5-DCAA and 3,5-DCNB” value ([1]; IKC, 0.5 or 1.0 mM, 90 min) was “Less than 5%”. The “Percent of Dose, Cells” value [2, 15] was 14.67 ± 1.78%, the “Percent of Dose, Media” value [2, 15] was 91.14 ± 3.04% and the “Percent of Dose, Cells” value ([2]; −DEDTCA) was 16.01 ± 2.02%. The “Percent of Dose, Media” value ([2]; −DEDTCA) was 89.43 ± 5.66%, the “concentration that induces cytotoxicity (increased LDH release)” value ([3]; 90 min) was 1000 µM and the non-cytotoxic concentration ([3]; 90 min) was 0.5 mM.

In the case of `CC(=O)Nc1cc(Cl)cc(Cl)c1` [3,5-DCAA, 3,5-dichloroacetanilide], the “Percentage of Dose, Cells” value [1, 13] is reported as 0.07 ^ %, the “Percentage of Dose, Media” value [1, 13] is reported as 1.86 ± 0.42% and the “Percentage of Dose, Media” value [1, 14] is reported as 0.56 ± 0.07%. The “Percent of Dose, Media” value [2, 15] was 0.30 ± 0.05%, the “Percent of Dose, Cells” value ([2]; −DEDTCA) was 0.02 ^ % and the “Percent of Dose, Media” value ([2]; −DEDTCA) was 0.50 ± 0.03%. The “LDH release (marker of cytotoxicity)” value [3] was “did not significantly increase LDH release” and the “nephrotoxic potential among the metabolites tested” value [3] was “not cytotoxic”.

For `O=[N+]([O-])c1cc(Cl)cc(Cl)c1` [3,5-DCNB, 3,5-dichloronitrobenzene], the “nephrotoxic potential among dichloronitrobenzenes” value (renal cortical slices) is given as “least potent nephrotoxicant among the dichloronitrobenzenes”, the “Percentage of Dose, Cells” value [1, 13] is given as 0.41 ^ % and the “Percentage of Dose, Media” value [1, 13] is given as 2.80 ^ %. The “Percentage of Dose, Cells” value [1, 14] was 0.34 ± 0.19 %, the “Percentage of Dose, Media” value [1, 14] was 1.18 ± 0.57 % and the “Percent of Dose, Cells” value [2, 15] was 0.06 ^ %. For the same compound, the “Percent of Dose, Media” value [2, 15] was 0.09 ^ %, the “Percent of Dose, Cells” value ([2]; −DEDTCA) was 0.13 ^ % and the “Percent of Dose, Media” value ([2]; −DEDTCA) was 0.31 ± 0.19 %. For the same compound, the “nephrotoxic potential among the metabolites tested” value [3] was “intermediate in nephrotoxic potential” and the “concentration giving significant increase in LDH release” value ([3]; 90 min exposure) was ≥ 1000 µM.

In the case of `ONc1cc(Cl)cc(Cl)c1` [3,5-DCPHA], the “detection as 3,5-DCA metabolite” value [2] is reported as “no 2-A-4,6-DCP, 4-A-2,6-DCP or 3,5-DCPHA detected”, the “nephrotoxic potential among the metabolites tested” value [3] is reported as “most potent nephrotoxicant” and the “concentration giving significant increase in LDH release” value ([3]; 60 min exposure) is reported as ≥ 250 µM. The “concentration giving significant increase in LDH release” value ([3]; 90 min exposure) was ≥ 250 µM.

In the case of `Nc1cc(Cl)c(O)c(Cl)c1` [4-A-2,6-DCP, 4-amino-2,6-dichlorophenol], the “concentration reducing uptake of p-aminohippurate (PAH)” value [7] is given as 5 µM, the “concentration reducing uptake of tetraethylammonium (TEA)” value [7] is given as 50 µM and the “concentration increasing LDH release” value [8] is given as ≥ 50 µM. For the same compound, the nephrotoxicity in vivo (kidney; male Fischer 344 rats, 0.38 mmol/kg, i.p.) was “marked nephrotoxicity”, the “free aminochlorophenol after arylsulfatase or β-glucuronidase treatment of media or cell lysates” value [1, 12] was “did not reveal any free 2-A-4,6-DCP or 4-A-2,6-DCP” and the “detection as 3,5-DCA metabolite” value [2] was “no 2-A-4,6-DCP, 4-A-2,6-DCP or 3,5-DCPHA detected”. The “concentration required to increase LDH release” value ([3]; 90 min exposure, albumin in medium, no reference given) was ≥ 250 µM.

For `CCN(CC)C(=S)S` [DEDTCA, diethyldithiocarbamic acid, reference compound], the “effect of inhibitor pretreatment on 3,5-DCA cytotoxicity” value [9] is given as “markedly reduced 3,5-DCA cytotoxicity” and the “effect of pretreatment on 3,5-DCA metabolite formation” value ([2]; DEDTCA 0.1 mM, then 3,5-DCA 1.0 mM) is given as “formation of 3,5-DCAA and 3,5-DCNB were reduced”.

With `COc1ccc2c(c1)c(CC(=O)O)c(C)n2C(=O)c1ccc(Cl)cc1` [Indomethacin] the “effect of pretreatment on 3,5-DCNB-induced cytotoxicity (LDH release)” value [10] was “tended to reduce 3,5-DCNB-induced LDH release but did not reach a significant difference”.

With `CC(=O)N[C@@H](CS)C(=O)O` [N-acetyl-L-cysteine] the “effect of pretreatment on 3,5-DCPHA-induced cytotoxicity (LDH release)” value [11] was “partially attenuated” and the “effect of pretreatment on 3,5-DCNB-induced cytotoxicity (LDH release)” value [10] was “significantly attenuated”.

With `O=C1O[C@H]([C@@H](O)CO)C(O)=C1O` [ascorbate] the “effect of pretreatment on 3,5-DCPHA-induced cytotoxicity (LDH release)” value [11] was “not effective at reducing 3,5-DCPHA cytotoxicity” and the “effect of pretreatment on 3,5-DCNB-induced cytotoxicity (LDH release)” value [10] was “significantly attenuated”.

For `N[C@@H](CCC(=O)N[C@@H](CS)C(=O)NCC(=O)O)C(=O)O` [glutathione], the “effect of pretreatment on 3,5-DCPHA-induced cytotoxicity (LDH release)” value [11] was “fully protected” and the “effect of pretreatment on 3,5-DCNB-induced cytotoxicity (LDH release)” value [10] was “significantly attenuated”.

For `NNC(=O)c1ccncc1` [isoniazid], the “effect of inhibitor pretreatment on 3,5-DCA cytotoxicity” value [9] is listed as “had no effect on 3,5-DCA cytotoxicity”.

In the case of `O=C(O)CC(S)C(=O)O` (stereo not shown) [mercaptosuccinate], the “effect of pretreatment on 3,5-DCNB-induced cytotoxicity (LDH release)” value [10] is reported as “significantly attenuated”.

For `CC(C)(C(=O)c1cccnc1)c1cccnc1` [metyrapone], the “effect of pretreatment on 3,5-DCNB-induced cytotoxicity (LDH release)” value [10] was “significantly attenuated”.

With `CCCCCCCCN` [n-octylamine] the “effect of pretreatment on 3,5-DCNB-induced cytotoxicity (LDH release)” value [10] was “significantly attenuated”.

For `CCCCOCCOCCOCc1cc2c(cc1CCC)OCO2` [piperonyl butoxide], the “effect of pretreatment on 3,5-DCNB-induced cytotoxicity (LDH release)” value [10] was “significantly attenuated”.

With `Cc1c(C)c2c(c(C)c1O)CC[C@@](C)(CCC[C@H](C)CCC[C@H](C)CCCC(C)C)O2` [α-tocopherol] the “effect of pretreatment on 3,5-DCNB-induced cytotoxicity (LDH release)” value [10] was “significantly attenuated”.
